Source: patent publication US20240294548A1, “TRICYCLIC SULTAMS AND SULFAMIDES AS ANTITUMOR AGENTS” (PELOTON THERAPEUTICS INC., priority 2021, published 2024)
pEC50, pIC50: −log10 of the molar value.

Experiments:
[1] = test system: HCT116 human colorectal carcinoma cells; assay: CellTiter-Glo assay (cell viability); type: cell-based; conditions: HCT-116, 72 h, HCT116 cells, 3 days, CellTiter-Glo luminescence, read-out: CTG IC50
Protocol: HCT116 human colorectal carcinoma cells were used in these experiments. HCT116 cells were obtained from ATCC. CellTiter-Glo® Luminescent Cell Viability Assay Reagent was obtained from Promega.
About 3,000 cells were seeded into 96-well plate with 100 μL of media (DMEM supplemented with 10% FBS, 100 units penicillin, and […] streptomycin per mL) the day before the experiment. For compound treatment, the master plate was prepared as follows: 100× compound stocks were prepared in a 96-well plate by 1 to 3 serial dilutions of 0.5 mM DMSO stocks. Each master plate contained serial dilution of 8 compounds, including the control compound E7820. […] of 100× compound stock was added to each well of the assay plate to give final concentrations of […]. Each concentration was tested in triplicate. After 3 days, cell viability was determined using CellTiter-Glo Luminescent Cell Viability Assay Reagent following the manufacturer's recommended protocol. Briefly, […] of CellTiter-Glo reagent was added to each well of the assay plate and the contents were mixed for 3 minutes at 600 rpm on a shaker (Thermomixer R). The plate was immediately placed in a plate reader (Synergy 2) and the luminescence signal (0.5 second per well integration time) was determined. IC50 values were calculated using Dotmatics software.

[2] = biological target: T1, DCAF15 (DDA1-DDB1ΔB-DCAF15Δpro) (Homo sapiens, UniProt Q66K64, DEL276-383); assay: DCAF15 displacement assay (displacement FRET, probe PT7795); type: binding; conditions: displacement of PT7795 (300 nM), compound 0.01 to 100 μM, 18 hours incubation; read-out: DCAF15 displacement IC50
T1 construct: made in house; host or cells: Sf9 (Bac-to-Bac baculovirus)
Excerpt: (§1) Proteins used for the assays were as follows: Human DDA1 (UniProt:Q9BW61), DDB1 (UniPro: Q16531), and DCAF15 (UniProt: Q66K64) coding sequences were cloned into pFastBac1 vectors and were co-expressed in Sf9 cells using Bac-to-Bac baculovirus expression system (Thermo Fisher Scientific). The expression construct for DCAF15 includes a N-terminal His6-tag to facilitate the purification.
DCAF15 Displacement Assay (Displacement FRET KD)
Synthesis of the probe PT7795 is described in the article.
Binding of PT7795 to DDA1-DDB1AB-DCAF15Δpro was measured by the FRET signal between europium-labeled anti-His antibody (AD0205, Perkin Elmer) that is associated with His-tagged DCAF15 and ALX647 moiety in PT7795. […] After equilibrating for 2-3 hours at 4° C., the plate was removed from the incubator, briefly spun, then read on a Spark 10 (Tecan) at the excitation/emission wavelength of 340 nm/615 nm and 340 nm/665 nm.
Binding of compounds in this disclosure to DCAF15 was measured in a competition by the displacement of PT7795. The concentration of PT7795 was kept at 300 nM while the concentration of a compound was varied from 0.01 to 100 μM. The incubation time was increased to 18 hours for enhanced signal to noise level.
F=Fmin+(Fmax−Fmin)/(1+10^(logIC50−log[Compound])^n) (Equation 2)
The Kds can then be calculated from IC50s using Equation 3 (Cheng-Prusoff equation).

[3] = biological target: T2, DCAF15 RBM39 ternary complex (Homo sapiens, UniProt Q14498+Q66K64, DEL276-383); assay: DCAF15 RBM39 complex formation assay (FRET); type: biochemical; conditions: FRET ratio, 20 nM DDB1DB/DCAF15, 50 nM RBM39 R1R2, overnight at 4° C.; read-out: DCAF15 RBM39 ternary complex EC50
T2 construct: Amino acids 150 to 331 of RBM39 were cloned into pGEX4T3; GST (from the pGEX4T3 vector, own knowledge) followed by a TEV cleavage site (N); made in house; host or cells: Sf9 baculovirus (DDB1ΔB/DCAF15); E. coli (RBM39 R1R2)
T2 sequence (Q66K64 with tags, fused parts or gaps DEL276-383): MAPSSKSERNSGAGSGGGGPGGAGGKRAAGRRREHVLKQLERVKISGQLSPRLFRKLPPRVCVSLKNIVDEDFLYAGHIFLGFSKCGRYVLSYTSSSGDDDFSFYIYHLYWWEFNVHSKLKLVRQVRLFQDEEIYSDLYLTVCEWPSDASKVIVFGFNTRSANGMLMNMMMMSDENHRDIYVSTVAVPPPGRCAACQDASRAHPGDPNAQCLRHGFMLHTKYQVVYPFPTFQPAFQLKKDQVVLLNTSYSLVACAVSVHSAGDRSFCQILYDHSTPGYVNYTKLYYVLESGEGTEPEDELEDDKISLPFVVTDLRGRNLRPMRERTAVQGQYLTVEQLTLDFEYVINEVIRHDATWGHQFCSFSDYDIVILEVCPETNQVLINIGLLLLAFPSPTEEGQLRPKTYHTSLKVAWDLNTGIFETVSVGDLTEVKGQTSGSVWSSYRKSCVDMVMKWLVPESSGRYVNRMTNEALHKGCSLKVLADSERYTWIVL
T2 sequence (Q14498 150-331, stated change not applied): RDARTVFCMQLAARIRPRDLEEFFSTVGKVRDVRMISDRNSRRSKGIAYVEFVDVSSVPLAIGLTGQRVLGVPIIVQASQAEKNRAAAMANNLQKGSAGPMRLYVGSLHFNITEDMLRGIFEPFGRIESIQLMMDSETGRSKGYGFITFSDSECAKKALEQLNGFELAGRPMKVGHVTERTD
Excerpt: as §1
DCAF15 RBM39 Complex Formation Assay
LANCE Eu-W1024 Anti-6×His and SureLight Allophycocyanin-anti-FLAG antibodies were purchased from Perkin Elmer. Human DDB1DB and His-tagged DCAF15 were co-expressed in baculovirus/sf9 system. […] The His-tagged DCAF15 contains six histidine residues directly preceding the DCAF15 sequence without any linker. An RBM39 fragment containing RRM1 and RRM2 was expressed in E. coli.
A compound of the present disclosure in DMSO (2 μL) was transferred to a 384-well assay plate. Compound was added in 14 points, 3-fold serial dilution (1 μM to 0.6 pico molar) in DMSO. […] FRET assay buffer (25 mM HEPES, pH 7.5, 100 mM NaCl, […], 0.5 mM TCEP, 0.005% Tween-20, 0.2 nM Eu-W1024 Anti-6×His, 50 nM SureLight Allophycocyanin-anti-FLAG, 20 nM DDB1DB/DCAF15, 50 nM RBM39 R1R2) was added and the resulting solution was incubated overnight at 4° C. […] Low signal controls containing no compound and high signal controls containing 10 mM indisulam were measured for each plate.
EC50 values were calculated using Dotmatics template equation for 4-parameter fit.
Results are expressed as % formation using the following equation: […]

pIC50 [1]	pIC50 [2]	pEC50 [3]	Structure (SMILES)
5.85	5.01	8.55	O=S1(=O)Nc2c(cc(Cl)c3c(Cl)c[nH]c23)CN1Cc1cccc(Cl)c1 [Compound 11, 6,7-dichloro-3-(3-chlorobenzyl)-1,3,4,9-tetrahydro-[1,2,6] thiadiazino[4,3-g]indole 2,2-dioxide]
5.30	≤ 4.00	7.13	CCCC1=Cc2ccc3c(Cl)c[nH]c3c2NS1(=O)=O [Compound 9, 7-chloro-3-propyl-1,9-dihydro-[1,2]thiazino[4,3-g]indole 2,2-dioxide]
5.88	4.76	8.06	O=S1(=O)Nc2c(cc(Cl)c3c(Cl)c[nH]c23)CN1c1ccccc1 [Compound 7, 6,7-dichloro-3-phenyl-1,3,4,9-tetrahydro-[1,2,6] thiadiazino[4,3-g]indole 2,2-dioxide]
6.73	5.84	8.59	O=S1(=O)Nc2c(cc(Cl)c3c(Cl)c[nH]c23)CN1Cc1cncc(Cl)c1 [Compound 56, 6,7-dichloro-3-((5-chloropyridin-3-yl)methyl)-1,3,4,9-tetrahydro-[1,2,6] thiadiazino[4,3-g]indole 2,2-dioxide]
5.55	6.79	8.62	O=c1cc(CN2Cc3cc(Cl)c4c(Cl)c[nH]c4c3NS2(=O)=O)cc[nH]1 [Compound 60, 4-((6,7-dichloro-2,2-dioxido-4,9-dihydro-[1,2,6]thiadiazino[4,3-g]indol-3(1H)-yl)methyl)pyridin-2(1H)-one]
6.89	6.43	8.92	O=S1(=O)Nc2c(cc(Cl)c3c(Cl)c[nH]c23)CN1Cc1cnccc1Cl [Compound 54, 6,7-dichloro-3-((4-chloropyridin-3-yl)methyl)-1,3,4,9-tetrahydro-[1,2,6] thiadiazino[4,3-g]indole 2,2-dioxide]
5.84	4.56	8.09	O=S1(=O)NCc2cc(Cl)c3c(Cl)c[nH]c3c2N1 [Compound 3, 6,7-dichloro-1,3,4,9-tetrahydro-[1,2,6]thiadiazino[4,3-g]indole 2,2-dioxide]
6.56	6.53	8.80	N#Cc1ccccc1CN1Cc2cc(Cl)c3c(Cl)c[nH]c3c2NS1(=O)=O [Compound 46, 2-((6,7-dichloro-2,2-dioxido-4,9-dihydro-[1,2,6]thiadiazino[4,3-g]indol-3(1H)-yl)methyl) benzonitrile]
7.21	6.56	8.74	O=S1(=O)Nc2c(cc(Cl)c3c(Cl)c[nH]c23)CN1CC1CCOCC1 [Compound 44, 6,7-dichloro-3-((tetrahydro-2H-pyran-4-yl)methyl)-1,3,4,9-tetrahydro-[1,2,6] thiadiazino[4,3-g]indole 2,2-dioxide]
6.52	5.08	8.70	O=S1(=O)Nc2c(cc(Cl)c3c(Cl)c[nH]c23)CN1CC1CC(F)(F)C1 [Compound 85, 6,7-dichloro-3-((3,3-difluorocyclobutyl)methyl)-1,3,4,9-tetrahydro-[1,2,6] thiadiazino[4,3-g]indole 2,2-dioxide]
5.65	5.08	9.15	O=S1(=O)Nc2c(cc(Cl)c3c(Cl)c[nH]c23)CN1Cc1ccc(C(F)(F)F)nc1 [Compound 49, 6,7-dichloro-3-((6-(trifluoromethyl)pyridin-3-yl)methyl)-1,3,4,9-tetrahydro-[1,2,6] thiadiazino[4,3-g]indole 2,2-dioxide]
6.03	4.24	7.79	O=S1(=O)Nc2c(ccc3c(Cl)c[nH]c23)CN1C1CCCCC1 [Compound 4, 7-chloro-3-cyclohexyl-1,3,4,9-tetrahydro-[1,2,6] thiadiazino[4,3-g]indole 2,2-dioxide]
6.92	6.49	8.70	O=S1(=O)Nc2c(cc(Cl)c3c(Cl)c[nH]c23)CN1Cc1cnccn1 [Compound 59, 6,7-dichloro-3-(pyrazin-2-ylmethyl)-1,3,4,9-tetrahydro-[1,2,6] thiadiazino[4,3-g]indole 2,2-dioxide]
6.93	6.68	8.40	O=S1(=O)Nc2c(cc(Cl)c3c(Cl)c[nH]c23)CN1Cc1ccncc1Cl [Compound 35, 6,7-dichloro-3-((3-chloropyridin-4-yl)methyl)-1,3,4,9-tetrahydro-[1,2,6]thiadiazino [4,3-g]indole 2,2-dioxide]
6.22	5.28	8.51	O=S1(=O)Nc2c(cc(Cl)c3c(Cl)c[nH]c23)CN1Cc1ccccc1 [Compound 6, 3-benzyl-6,7-dichloro-1,3,4,9-tetrahydro-[1,2,6]thiadiazino[4,3-g]indole 2,2-dioxide]
5.30	≤ 4.00	7.79	CCCC1Cc2ccc3c(Cl)c[nH]c3c2NS1(=O)=O (stereo not drawn) [Compound 10, 7-chloro-3-propyl-1,3,4,9-tetrahydro-[1,2]thiazino[4,3-g]indole 2,2-dioxide]
6.27	5.81	8.80	CC(=O)NCCN1Cc2cc(Cl)c3c(Cl)c[nH]c3c2NS1(=O)=O [Compound 40, N-(2-(6,7-dichloro-2,2-dioxido-4,9-dihydro-[1,2,6]thiadiazino[4,3-g]indol-3(1H)-yl)ethyl) acetamide]
6.00	4.28	8.47	O=S1(=O)Nc2c(cc(Cl)c3c(Cl)c[nH]c23)CN1CCCC(F)(F)C(F)(F)F [Compound 25, 6,7-dichloro-3-(4,4,5,5,5-pentafluoropentyl)-1,3,4,9-tetrahydro-[1,2,6] thiadiazino[4,3-g]indole 2,2-dioxide]
6.63	4.91	9.15	COCCC1Cc2cc(Cl)c3c(Cl)c[nH]c3c2NS1(=O)=O (racemic) [Compound 22, 6,7-dichloro-3-(2-methoxyethyl)-1,3,4,9-tetrahydro-[1,2]thiazino[4,3-g]indole 2,2-dioxide]
6.85	6.19	9.10	O=S1(=O)Nc2c(cc(Cl)c3c(Cl)c[nH]c23)CN1Cc1cccnc1Cl [Compound 27, 6,7-dichloro-3-((2-chloropyridin-3-yl)methyl)-1,3,4,9-tetrahydro-[1,2,6]thiadiazino [4,3-g]indole 2,2-dioxide]
6.69	6.20	8.64	COCCCN1Cc2cc(Cl)c3c(Cl)c[nH]c3c2NS1(=O)=O [Compound 68, 6,7-dichloro-3-(3-methoxypropyl)-1,3,4,9-tetrahydro-[1,2,6] thiadiazino[4,3-g]indole 2,2-dioxide]
